Experimental data taken from US9593110B2, “Neprilysin inhibitors” (Theravence Biopharma R&D IP, LLC, priority 2014, dated 2017).

biological target: human NEP (Homo sapiens (Human), UniProt P08473); assay: In vitro enzyme inhibition assay at human NEP; conditions: pKi, recombinant human NEP, fluorogenic peptide substrate, 37° C.
Sequence (P08473 52-750): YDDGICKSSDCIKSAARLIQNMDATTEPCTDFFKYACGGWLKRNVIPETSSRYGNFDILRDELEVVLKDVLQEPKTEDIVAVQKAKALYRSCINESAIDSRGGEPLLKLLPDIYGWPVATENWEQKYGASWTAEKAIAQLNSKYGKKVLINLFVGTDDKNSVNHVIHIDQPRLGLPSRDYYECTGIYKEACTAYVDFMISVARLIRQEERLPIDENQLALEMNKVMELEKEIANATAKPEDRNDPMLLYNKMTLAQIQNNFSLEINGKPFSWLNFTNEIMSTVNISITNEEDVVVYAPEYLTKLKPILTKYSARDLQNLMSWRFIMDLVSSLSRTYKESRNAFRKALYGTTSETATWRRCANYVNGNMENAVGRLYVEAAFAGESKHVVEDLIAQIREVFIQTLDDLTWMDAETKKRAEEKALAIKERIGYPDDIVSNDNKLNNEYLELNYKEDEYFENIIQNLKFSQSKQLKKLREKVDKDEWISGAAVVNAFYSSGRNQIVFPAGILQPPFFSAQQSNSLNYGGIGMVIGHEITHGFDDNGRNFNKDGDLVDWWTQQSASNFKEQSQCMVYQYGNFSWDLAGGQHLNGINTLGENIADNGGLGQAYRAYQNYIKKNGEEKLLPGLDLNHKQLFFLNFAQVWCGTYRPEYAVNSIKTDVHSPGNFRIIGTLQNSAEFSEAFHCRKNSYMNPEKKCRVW

Ki | Compound
≤ 1 nM | O=C(N[C@H](Cc1ccc(-c2cc(Cl)ccc2F)cc1)C[C@@H](Cn1ccnn1)C(=O)O)c1cnn[nH]1 [Example 61a, (2S,4S)-5-(5′-Chloro-2′-fluorobiphenyl-4-yl)-4-[(3H-[1,2,3]triazole-4-carbonyl)amino]-2-[1,2,3]triazol-1-ylmethylpentanoic Acid]
≤ 1 nM | O=C(N[C@H](Cc1ccc(-c2cc(Cl)ccc2F)cc1)C[C@@H](CN1CC(F)(F)C1)C(=O)O)c1cnn[nH]1 [Example 90b, (2S,4S)-5-(5′-Chloro-2′-fluorobiphenyl-4-yl)-2-(3,3-difluoroazetidin-1-ylmethyl)-4-[(3H-[1,2,3]triazole-4-carbonyl)amino]pentanoic Acid]
≤ 1 nM | O=C(N[C@H](Cc1ccc(-c2cc(Cl)ccc2F)cc1)C[C@@H](CNCCO)C(=O)O)c1cnn[nH]1 (single isomer, unassigned) [Example 48a]
≤ 1 nM | COC[C@H]1CCN1C[C@H](C[C@@H](Cc1ccc(-c2cc(Cl)ccc2F)cc1)NC(=O)c1c[nH]nn1)C(=O)O [Example 103b, (2S,4S)-5-(5′-Chloro-2′-fluorobiphenyl-4-yl)-2-((R)-2-methoxymethylazetidin-1-ylmethyl)-4-[(3H-[1,2,3]triazole-4-carbonyl)amino]pentanoic Acid]
≤ 1 nM | O=C(N[C@H](Cc1ccc(-c2cc(Cl)ccc2F)cc1)C[C@@H](CN1CC(CO)C1)C(=O)O)c1cnn[nH]1 [Example 93b, (2S,4S)-5-(5′-Chloro-2′-fluorobiphenyl-4-yl)-2-(3-hydroxymethyl-azetidin-1-ylmethyl)-4-[(3H-[1,2,3]triazole-4-carbonyl)amino]pentanoic Acid]
1.26 to 3.16 nM | Cc1n[nH]c(C(=O)N[C@H](Cc2ccc(-c3cc(Cl)ccc3F)cc2)C[C@@H](N)C(=O)O)c1F [Example 16-20, (2R,4R)-2-Amino-5-(5′-chloro-2′-fluorobiphenyl-4-yl)-4-[(4-fluoro-5-methyl-2H-pyrazole-3-carbonyl)amino]pentanoic acid]
≤ 1 nM | COCCNC[C@H](C[C@@H](Cc1ccc(-c2cc(Cl)ccc2F)cc1)NC(=O)c1cnn[nH]1)C(=O)O (single isomer, unassigned) [Example 49a]
1.26 to 3.16 nM | COC[C@H](C[C@@H](Cc1ccc(-c2cc(Cl)ccc2F)cc1)NC(=O)c1c[nH]c(=O)o1)C(=O)O [Example 2-10, (2S,4S)-5-(5′-Chloro-2′-fluorobiphenyl-4-yl)-2-methoxymethyl-4-[(2-oxo-2,3-dihydro-oxazole-5-carbonyl)amino]pentanoic acid]

The remaining lines, values behind:

Compound | Ki
O=C(N[C@H](Cc1ccc(-c2ccccc2)cc1)C[C@@H](COCCCO)C(=O)O)c1c[nH]nn1 [Example 12, (2S,4S)-5-Biphenyl-4-yl-2-(3-hydroxypropoxymethyl)-4-[(1H-[1,2,3]triazole-4-carbonyl)amino]pentanoic Acid] | 1.26 to 3.16 nM
O=C(N[C@H](Cc1ccc(-c2cc(Cl)ccc2F)cc1)CC(C(=O)O)c1ccccn1)c1cnn[nH]1 (stereo in doubt) [Example 76, (S)-5-(5′-Chloro-2′-fluorobiphenyl-4-yl)-2-pyridin-2-yl-4-[(3H-[1,2,3]triazole-4-carbonyl)amino]pentanoic Acid] | 12.6 to 31.6 nM
CCCc1cc(C(=O)N[C@H](Cc2ccc(-c3cc(Cl)ccc3F)cc2)C[C@@H](N)C(=O)O)no1 [Example 16-2, (2R,4R)-2-Amino-5-(5′-chloro-2′-fluorobiphenyl-4-yl)-4-[(5-propylisoxazole-3-carbonyl)-amino]pentanoic acid] | 1.26 to 3.16 nM
CCC(=O)N[C@H](C[C@@H](Cc1ccc(-c2ccccc2)cc1)NC(=O)c1c[nH]nn1)C(=O)O [Example 27, (2R,4R)-5-Biphenyl-4-yl-2-propionylamino-4-[(1H-[1,2,3]triazole-4-carbonyl)amino]pentanoic Acid] | 3.16 to 10 nM
O=C(N[C@H](Cc1ccc(-c2ccccc2)cc1)CC(C(=O)O)C1CCOCC1)c1cnn[nH]1 (stereo in doubt) [Example 58, (S)-5-Biphenyl-4-yl-2-(tetrahydropyran-4-yl)-4-[(3H-[1,2,3]triazole-4-carbonyl)amino]pentanoic Acid] | 3.16 to 10 nM
NCC[C@H](C[C@@H](Cc1ccc(-c2cc(Cl)ccc2F)cc1)NC(=O)c1cnn[nH]1)C(=O)O [Example 24-2, (2R,4S)-2-(2-Aminoethyl)-5-(5′-chloro-2′-fluorobiphenyl-4-yl)-4-[(3H-[1,2,3]triazole-4-carbonyl)amino]pentanoic acid] | 1.26 to 3.16 nM
NCC(=O)N[C@H](C[C@@H](Cc1ccc(-c2ccccc2F)cc1)NC(=O)c1c[nH]nn1)C(=O)O [Example 32, (2R,4R)-2-(2-Aminoacetylamino)-5-(2′-fluorobiphenyl-4-yl)-4-[(1H-[1,2,3]triazole-4-carbonyl)amino]pentanoic Acid] | 3.16 to 10 nM
O=C(N[C@H](Cc1ccc(-c2cc(Cl)ccc2F)cc1)C[C@@H](Cc1nnn[nH]1)C(=O)O)c1cnn[nH]1 [Example 63, (2S,4S)-5-(5′-Chloro-2′-fluorobiphenyl-4-yl)-2-(1H-tetrazol-5-ylmethyl)-4-[(3H-[1,2,3]triazole-4-carbonyl)amino]pentanoic Acid] | 1.26 to 3.16 nM
CCOC[C@H](C[C@@H](Cc1ccc(-c2cccc(Cl)c2)cc1)NC(=O)c1cc(O)no1)C(=O)O [Example 8, (2S,4S)-5-(3′-Chlorobiphenyl-4-yl)-2-ethoxymethyl-4-[(3-hydroxyisoxazole-5-carbonyl)amino]pentanoic Acid] | ≤ 1 nM
N[C@@H](C[C@@H](Cc1ccc(-c2cc(Cl)ccc2F)cc1)NC(=O)c1nc2cc(Cl)ccn2n1)C(=O)O [Example 16-26, (2S,4R)-2-Amino-5-(5′-chloro-2′-fluorobiphenyl-4-yl)-4-[(7-chloro-[1,2,4]triazolo[1,5-a]pyridine-2-carbonyl)amino]pentanoic acid] | 1.26 to 3.16 nM
CCc1cc(C(=O)N[C@H](Cc2ccc(-c3cc(Cl)ccc3F)cc2Cl)C[C@@H](N)C(=O)O)on1 [Example 18-5, (2R,4R)-2-Amino-5-(3,5′-dichloro-2′-fluorobiphenyl-4-yl)-4-[(3-ethylisoxazole-5-carbonyl)amino]pentanoic acid] | 1.26 to 3.16 nM
O=C(N[C@H](Cc1ccc(-c2cc(Cl)ccc2F)cc1)CC(C(=O)O)C1CCNCC1)c1cnn[nH]1 (stereo in doubt) [Example 59, (S)-5-(5′-Chloro-2′-fluorobiphenyl-4-yl)-2-piperidin-4-yl-4-[(3H-[1,2,3]triazole-4-carbonyl)amino]pentanoic Acid] | ≤ 1 nM

same assay, conditions: recombinant human NEP, fluorogenic peptide substrate, 37° C.

pKi | Compound
≧9.0 | COC(=O)N[C@H](C[C@@H](Cc1ccc(-c2cc(Cl)ccc2F)cc1)NC(=O)c1ncco1)C(=O)O [Example 30-3, (2R,4R)-5-(5′-Chloro-2′-fluoro-biphenyl-4-yl)-2-methoxycarbonylamino-4-[(oxazole-2-carbonyl)amino]pentanoic acid]
≧9.0 | COC(=O)N[C@H](C[C@@H](Cc1ccc(-c2cc(Cl)ccc2F)cc1)NC(=O)c1noc(=O)[nH]1)C(=O)O [Example 30-9, (2R,4R)-5-(5′-Chloro-2′-fluorobiphenyl-4-yl)-2-methoxycarbonylamino-4-[(5-oxo-4,5-dihydro-[1,2,4]oxadiazole-3-carbonyl)amino]pentanoic acid]
≧9.0 | CCOC[C@H](C[C@@H](Cc1ccc(-c2cc(Cl)ccc2F)cc1)NC(=O)c1cc(CC)no1)C(=O)O [Example 7-5, (2S,4S)-5-(5′-Chloro-2′-fluorobiphenyl-4-yl)-2-ethoxymethyl-4-[(3-ethylisoxazole-5-carbonyl)amino]pentanoic acid]
≧9.0 | COC[C@H](C[C@@H](Cc1ccc(-c2cc(Cl)ccc2F)cc1)NC(=O)c1noc(=O)[nH]1)C(=O)O [Example 2-11, (2S,4S)-5-(5′-Chloro-2′-fluorobiphenyl-4-yl)-2-methoxymethyl-4-[(5-oxo-4,5-dihydro-[1,2,4]oxadiazole-3-carbonyl)amino]pentanoic acid]
≧9.0 | Cc1cnc(C(=O)N[C@H](Cc2ccc(-c3cc(Cl)ccc3F)cc2)C[C@@H](CN)C(=O)O)o1 [Example 21-3, (2S,4S)-2-Aminomethyl-5-(5′-chloro-2′-fluorobiphenyl-4-yl)-4-[(5-methyl-oxazole-2-carbonyl)amino]pentanoic acid]
≧9.0 | COCc1cc(C(=O)N[C@H](Cc2ccc(-c3cc(Cl)ccc3F)cc2Cl)C[C@H](N)C(=O)O)no1 [Example 18-8, (2S,4R)-2-Amino-5-(3,5′-dichloro-2′-fluorobiphenyl-4-yl)-4-[(5-methoxymethylisoxazole-3-carbonyl)amino]pentanoic acid]

More lines, now with the values behind:

Compound | pKi
CCOC[C@H](C[C@@H](Cc1ccc(-c2ccccc2)cc1)NC(=O)c1c[nH]nn1)C(=O)O [Example 10, (2S,4S)-5-Biphenyl-4-yl-2-ethoxymethyl-4-[(1H-[1,2,3]triazole-4-carbonyl)amino]pentanoic Acid] | ≧9.0
N#CC[C@H](C[C@@H](Cc1ccc(-c2ccccc2)cc1)NC(=O)c1cnn[nH]1)C(=O)O [Example 50, (2S,4S)-5-Biphenyl-4-yl-2-cyanomethyl-4-[(3H-[1,2,3]triazole-4-carbonyl)amino]pentanoic Acid] | ≧9.0
Cc1cnc(C(=O)N[C@H](Cc2ccc(-c3cc(Cl)ccc3F)cc2Cl)C[C@@H](N)C(=O)O)o1 [Example 18-3, (2R,4R)-2-Amino-5-(3,5′-dichloro-2′-fluorobiphenyl-4-yl)-4-[(5-methyloxazole-2-carbonyl)amino]pentanoic acid] | ≧9.0
NCCCCCC(=O)N[C@H](C[C@@H](Cc1ccc(-c2cc(Cl)ccc2F)cc1)NC(=O)c1c[nH]nn1)C(=O)O [Example 70, (2R,4R)-2-(6-Aminohexanoylamino)-5-(5′-chloro-2′-fluorobiphenyl-4-yl)-4-[(1H-[1,2,3]triazole-4-carbonyl)amino]pentanoic Acid] | ≧9.0
CCc1cc(C(=O)N[C@H](Cc2ccc(-c3cc(Cl)ccc3F)cc2Cl)C[C@H](N)C(=O)O)on1 [Example 18-6, (2S,4R)-2-Amino-5-(3,5′-dichloro-2′-fluorobiphenyl-4-yl)-4-[(3-ethylisoxazole-5-carbonyl)amino]pentanoic acid] | ≧9.0
